Ends that are not written are not given here.
Assays:
[1] = test system: E. coli
[2] = Peptide-lipid overlay assay (lipid strips); type: binding; details: 100 pmol lipid spots, LL-37 0.04 mg/ml, 1 h room temperature, anti-LL-37 HRP antibody, qualitative
Method: The lipid affinity of LL-37 was assessed using peptide-lipid overlay assays of commercially available lipid strips blotted with 100 pmol of biologically relevant lipids (Echelon Biosciences, Salt Lake City, UT), following the manufacturer’s instructions. Lipid strips were blocked with 1% fat-free milk in TBS (150 mM NaCl, 50 mM Tris-HCl, pH 7.6) for 1 h at room temperature and then incubated with LL-37 (0.04 mg/ml) dissolved in 10 mM NaHCO3, 100 mM NaCl, 5 mM sodium phosphate, pH 8, plus 1% fat-free milk in TBS for 1 h at room temperature. The lipid strips were first washed with TBS buffer three times, and then incubated overnight at 4 °C in a solution of TBS containing 1% fat free milk and the anti-LL-37 HRP-labelled antibody (Innovagen, Sweden) in a 1:2000 dilution. After being washed three times with TBS, the peptide was detected by chemoluminescence using the super-signal western femto maximum sensitivity substrate kit (Thermo Scientific, Pierce Biotechnology, Inc).

[3] = Oligomerization by size exclusion chromatography (SEC); type: physicochemical
Method: The oligomeric state of the peptide in the absence and presence of detergents was characterized on Superdex75 10/300 GL column (GE Healthcare) at peptide concentrations of 0.7 (0.16 mM) or 3.7 mg/ml (0.83 mM) respectively. The column was equilibrated using buffer A containing 100 mM NaCl, 10 mM NaHCO3, 5 mM sodium phosphate, pH 6.8, for the detergent free sample. SEC in the presence of detergents was performed at 0.7 mg/ml (0.16 mM) of LL-37 in buffer A plus the following detergent concentrations: 0.2% LDAO (8.7 mM), 0.05% DDM (0.98 mM), 0.2% DPC (5.6 mM). Peptides were incubated with buffer A and buffer-detergent solutions for 30 minutes before 200 μl samples were loaded onto the column. The flow rate of the column was adjusted to 0.5 ml/min and all runs were performed at room temperature. The peptide retention time was monitored at 215 nm due to the absence of Trp and Tyr residues.

[4] = Analytical ultracentrifugation (AUC), equilibrium sedimentation; type: physicochemical; details: 0.33 mg/ml (0.07 mM) in 50 mM phosphate buffer pH 7.2, 0.04% DDM, 18.000 rpm, 20°C, 230 nm; data not shown
From the text: Supplementa ry mat eria l to the paper:
Structural remodeling and oligomerization of human cathelicidin on membranes […]
by Enea Sancho-V aello, Patrice François, Eve-Julie Bonetti, Hauke Lilie, Sebastian Finger, Fernando Gil-Ortiz, Davi d Gil -Carton, Kornelius Zeth
Peptides, lipids and detergents
All peptides used in our study were chemically synthesized and purchased from Peptide2.0(www.peptide20.com), Proteogenix (www.ProteoGenix.fr) or Genecust (www. gen ecust.com) at purities of higher than 95%. Detergents used in this study are N - o c t yl -β-D-glucoside(Apollo Scientific limited), N-D o d e c yl -β-D-maltoside (Apollo Scientific limited), N-dodecylphosphocholine(Affymetrix) and N-dodec yl-N,N-dimethylamine-N-ox ide(Aff ymetrix ). The lipids 1,2- dioleoyl-sn-gl yc e r o -3- phosphocholine (DOPC), 1,2- dioleoyl-s n gl yc e r o -3- phosphoglycerol(DOPG) and cardiolipin (CL) were purchased from Avanti P olarLipids, Inc. (Alab aster, A L, USA). […]
Centrifugationruns were performed at 18.000 rpm and 20°C; data were collected at a wavelength of 230 nmusi ng a concentration of 0.33 mg/ml (0.07 mM) in 50 mM phosphate buffer, pH 7.2. […] The radial distribution of LL-37 at sedimentation equilibrium in the respective bufferwas linearized according to the Lamm equation 1and the slope dlnc/dr2 with c representingthe peptide concentration at the radial position r was determined experimentally. […]

[5] = test system: E. coli K12 cells; assay: Cryo-electron microscopy of E. coli incubated with gold-labelled peptide; type: cell-based; details: E. coli K12, 18 µM (80 µg/ml) labelled peptide, 37 °C, 80 minutes
Method: E. coli K12 cells were grown at 37 °C at 200 rpm up to an OD of 0.6, and labeled LL-37 nanogold was added to 1 ml culture to reach a final concentration of 18 µM (80 µg/ml). The cultures were further incubated at 37 °C while shaking at 300 rpm (Eppendorf Thermomixer, Hamburg, Germany). After 80 minutes, 200 μl of the sample were taken and cells were pelleted at 3000*g for 10 min at 4 °C. The cell pellet was resuspended using 15 μl of culture solution in order to concentrate the sample and reach a sufficiently high cell density for the visualization in the microscope.

[6] = Cryo-EM of small unilamellar lipid vesicles incubated with gold-labelled peptide; details: DOPC:DOPG (3:7) SUVs, peptide:lipid 1:250, 15 minutes
Method: For the labeling of LL-37 with 1.4 nm nanogold particles (Nanoprobes, Inc), 200 µM of the S37C peptide were reduced using 5 mM of Dithiothreitol (DTT) in the presence of 5 mM EDTA and 100 mM sodium phosphate, pH 7, at room temperature for 1 hour while shaking. The excess of DTT was removed using a 3 kD-cutoff ultrafiltration cell (Amicon, Millipore). Nanogold at 6 nmol concentration was incubated with the peptide at room temperature for 2 hours while shaking. To remove the excess of nanogold, the mixture was loaded onto a Superdex 75 10/300 GL column (GE Healthcare) with 150 mM NaCl and 20 mM sodium phosphate, pH 7. The fractions containing the labeled peptide were concentrated using a 3 kD-cutoff (Amicon, Millipore) ultrafiltration device. The DOPC:DOPG (3:7) SUVs (small unilamellar vesicles) were prepared using a mini-extruder (Avanti Polar Lipids, Inc). Their size and homogeneity was checked using dynamic light scattering (DLS). DOPC:DOPG vesicles were treated with nanogold labeled LL-37 (ratio of peptide to lipid 1:250).

LLGDFFRKSKEKIGKEFKRIVQRIKDF [LL-28]
MIC against E. coli in the presence of detergent [1]: 6 µg/mL

CC[C@H](C)[C@H](NC(=O)[C@H](CCCCN)NC(=O)[C@H](CCC(=O)O)NC(=O)[C@H](CCCCN)NC(=O)[C@H](CO)NC(=O)[C@H](CCCCN)NC(=O)[C@H](CCCNC(=N)N)NC(=O)[C@H](Cc1ccccc1)NC(=O)[C@H](Cc1ccccc1)NC(=O)[C@H](CC(=O)O)NC(=O)CNC(=O)[C@H](CC(C)C)NC(=O)[C@@H](N)CC(C)C)C(=O)NCC(=O)N[C@@H](CCCCN)C(=O)N[C@@H](CCC(=O)O)C(=O)N[C@@H](Cc1ccccc1)C(=O)N[C@@H](CCCCN)C(=O)N[C@@H](CCCNC(=N)N)C(=O)N[C@H](C(=O)N[C@H](C(=O)N[C@@H](CCC(N)=O)C(=O)N[C@@H](CCCNC(=N)N)C(=O)N[C@H](C(=O)N[C@@H](CCCCN)C(=O)N[C@@H](CC(=O)O)C(=O)N[C@@H](Cc1ccccc1)C(=O)N[C@@H](CC(C)C)C(=O)N[C@@H](CCCNC(=N)N)C(=O)N[C@@H](CC(N)=O)C(=O)N[C@@H](CC(C)C)C(=O)N[C@H](C(=O)N1CCC[C@H]1C(=O)N[C@@H](CCCNC(=N)N)C(=O)N[C@H](C(=O)N[C@@H](CCC(=O)O)C(=O)N[C@@H](CO)C(=O)O)[C@@H](C)O)C(C)C)[C@@H](C)CC)C(C)C)[C@@H](C)CC [LL-37]
Interaction with PS (lipid overlay) ([2]; chemoluminescence): strong interactions | Binding to PC (lipid overlay) [2]: does not bind | Interaction with CL (lipid overlay) [2]: strong interactions | Interaction with PE (lipid overlay) [2]: strong interactions | Interaction with PG (lipid overlay) [2]: strong interactions | Interaction with PI (lipid overlay) [2]: do not interact | Interaction with PI-4 (lipid overlay) [2]: do not interact | Interaction with PI-4,5 (lipid overlay) [2]: do not interact | Interaction with phosphatidic-acid (lipid overlay) [2]: strong interactions | Interaction with sulfatide (lipid overlay) [2]: strong interaction | Recognition of PI-3, 4, 5 (lipid overlay) [2]: recognized | Oligomeric state in SEC, dominating species ([3]; 0.16 mM (0.7 mg/ml) peptide, no detergent, Superdex75 10/300 GL, 100 mM NaCl, 10 mM NaHCO3, 5 mM sodium phosphate pH 6.8, room temperature, 215 nm): monomeric | Oligomeric state in SEC in the presence of detergents ([3]; 0.16 mM peptide with 0.2% LDAO, 0.2% DPC or 0.05% DDM, 30 min pre-incubation, buffer pH 6.8, room temperature): tetramers or hexamers | Oligomeric state in SEC (retention time range) ([3]; 0.83 mM (3.7 mg/ml) peptide, no detergent, Superdex75 10/300 GL, buffer pH 6.8, room temperature, 215 nm): tetramer or hexamer | Molecular weight in SEC in the presence of detergents ([3]; in the presence of DDM, DPC and LDAO): around 30 kD | Molecular weight by AUC in DDM [4]: ~ 28 kD

gold-labelled LL-37: S37C mutant of LL-37 labeled at the C-terminus with 1.4 nm nanogold particles (LLGDFFRKSKEKIGKEFKRIVQRIKDFLRNLVPRTEC; also: labeled at the C-terminus with 1.4 nm nanogold particles, attachment not given here; UniProt P49913 134-170, looked up, variant S37C)
Effect on E. coli membranes (cryo-EM) [5]: clear perforation of the outer but not of the inner membrane | Membrane perturbation of lipid vesicles (cryo-EM) [6]: no significant membrane perturbation
